Values quoted from earlier work in patent publication US20250222110A1, “METHODS AND COMPOSITIONS FOR TREATMENT OF AGE-RELATED CATARACTS” (LIVIONEX, Inc., priority 2024, published 2025).

Conditions: 79° F.

CS(C)(=O)=O [MSM, methylsulfonylmethane]
water solubility: 34 % w/v
